Laboratory results as given in US8658794B2, “8-methyl-1-phenyl-imidazol[1,5-a]pyrazine compounds as Lck inhibitors and uses thereof” (Merck Sharp & Dohme B.V., priority 2010, dated 2014).

Molecular target: T1, N-terminal His6-tagged recombinant full-length human Lck (Homo sapiens, UniProt P06239)
T1 construct: N-terminal His6-tagged recombinant full-length human Lck; His6 (N); purchased Millipore
Assay: Lck IMAP assay
Assay type: biochemical
Conditions: ATP 6 μM (KM,ATP), enzyme pre-incubated with compounds for 60 minutes, values given as bins
Source text: Inhibition of kinase activity can be measured using the Immobilized Metal Assay for Phosphochemicals (IMAP) assay. IMAP is a homogeneous fluorescence polarization (FP) assay based on affinity capture of phosphorylated peptide substrates. IMAP uses fluorescein-labeled peptide substrates that, upon phosphorylation by a protein kinase, bind to so-called IMAP nanoparticles, which are derivatized with trivalent metal complexes. Binding causes a change in the rate of the molecular motion of the peptide, and results in an increase in the FP value observed for the fluorescein label attached to the substrate peptide (Gaudet et al. A homogeneous fluorescence polarization assay adaptable for a range of protein serine/threonine and tyrosine kinases. J. Biomol. Screen (2003) 8, 164-175).
Enzyme used was N-terminal His6-tagged recombinant full-length human Lck from Millipore. Phosphorylation substrate was a fluorescein-labeled peptide (5FAM-KVEKIGEGTYGVV—NH2) derived from p34cdc2 from Molecular Devices. Enzymes, substrate and ATP were diluted in Kinase Reaction buffer (10 mM Tris-HCl, 10 mM MgCl2, 0.01% Tween-20, 0.05% NaN3 pH 7.2, 1 mM DTT (dithiotreitol). The final volume at the kinase reaction step of the assay in the 384-well plate was 20 μl. Final amount of enzyme in the reaction was 0.1 U/ml. Enzyme was pre-incubated with compounds diluted in 1% DMSO (dimethylsulfoxide) for 60 minutes at room temperature in the dark. Subsequently, peptide substrate to a final concentration of 100 nM, and ATP to a final concentration of 6 μM were added and the mix was incubated for 120 minutes at room temperature in the dark. IMAP progressive binding buffer (75% 1× buffer A, 25% 1× buffer B with 1:600 Progressive Binding Reagent; Molecular Devices) was added, followed by an incubation step of 60 minutes at room temperature in the dark. Finally, the FP signal was read on an Envision Multilabel reader (Perkin Elmer).
All biochemical assays were run at KM,ATP of the enzyme using non-saturated conditions, meaning that during the incubation time it was assured that the signal increase was linear with time. For all biochemical assays a reference standard was used on each plate.
Ten point serial dilutions using a √10 dilution factor were used for dose response testing of compounds. Starting concentration was 10^-6M for Lck IMAP assays. Dose-response curves were run as two experiments on duplicate plates (N=1; n=2). All data was normalized to percentage effect based on maximum (Max) and minimum (Min) control values. On every 384 assay plate 16 wells were used as minimum wells (wells with ATP, 0% effect) and 16 wells were used as maximum wells (wells without ATP, 100% effect). 16 wells were used for measuring the background signal, obtained from a kinase reaction containing all constituents except the labeled peptide substrate. Percentage effect was plotted against log dilution concentration of compound to obtain sigmoid dose response curves. pIC50 values were calculated using ActivityBase.

T1 sequence (P06239 whole entry): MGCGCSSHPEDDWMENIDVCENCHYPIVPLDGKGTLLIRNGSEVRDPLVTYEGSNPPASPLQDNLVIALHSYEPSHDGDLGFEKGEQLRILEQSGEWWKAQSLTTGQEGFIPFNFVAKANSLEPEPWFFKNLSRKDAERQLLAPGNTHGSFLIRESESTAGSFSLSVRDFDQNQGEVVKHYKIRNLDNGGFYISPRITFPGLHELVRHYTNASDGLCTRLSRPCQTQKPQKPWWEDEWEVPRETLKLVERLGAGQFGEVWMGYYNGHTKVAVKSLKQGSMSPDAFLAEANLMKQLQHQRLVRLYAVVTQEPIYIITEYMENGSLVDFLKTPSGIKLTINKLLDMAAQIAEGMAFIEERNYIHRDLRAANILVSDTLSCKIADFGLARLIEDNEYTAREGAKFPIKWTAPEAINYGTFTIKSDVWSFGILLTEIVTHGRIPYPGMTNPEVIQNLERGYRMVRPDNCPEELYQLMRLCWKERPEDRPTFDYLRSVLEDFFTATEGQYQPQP

| Compound | IC50 [nM] |
| --- | --- |
| COc1cc(-c2nc(N3CCN(C4CCOCC4)CC3)n3ccnc(C)c23)ccc1NC(=O)c1cc2c(OC)cccc2n1C [Example 34, 4-Methoxy-N-(2-methoxy-4-(8-methyl-3-(4-(tetrahydro-2H-pyran-4-yl)piperazin-1-yl)imidazo[1,5-a]pyrazin-1-yl)phenyl)-1-methyl-1H-indole-2-carboxamide] | ≤ 10 |
| COc1cc(-c2nc([C@H]3CCN(C4CCOCC4)C3)n3ccnc(C)c23)ccc1NC(=O)c1cc2c(OC)cccc2n1C [Example 36, (S)-4-Methoxy-N-(2-methoxy-4-(8-methyl-3-(1-(tetrahydro-2H-pyran-4-yl)pyrrolidin-3-yl)imidazo[1,5-a]pyrazin-1-yl)phenyl)-1-methyl-1H-indole-2-carboxamide] | 10 to 100 |
| COc1cc(-c2nc([C@H]3CC[C@H](N)CC3)n3ccnc(C)c23)ccc1NC(=O)c1cc2c(OC)cccc2n1C [Example 39, N-(4-(3-((trans)-4-aminocyclohexyl)-8-methylimidazo[1,5-a]pyrazin-1-yl)-2-methoxyphenyl)-4-methoxy-1-methyl-1H-indole-2-carboxamide] | ≤ 10 |
| COc1cc(-c2nc([C@H]3CC[C@H](NCC(F)F)CC3)n3ccnc(C)c23)ccc1NC(=O)c1cc2c(OC)cccc2n1C [Example 40, N-(4-(3-((trans)-4-(2,2-Difluoroethylamino)cyclohexyl)-8-methylimidazo[1,5-a]pyrazin-1-yl)-2-methoxyphenyl)-4-methoxy-1-methyl-1H-indole-2-carboxamide] | ≤ 10 |
| COc1cc(-c2nc([C@H]3CC[C@H](N4CC(F)(F)C4)CC3)n3ccnc(C)c23)ccc1N(C)C(=O)OC(C)C [Example 41, Isopropyl 4-(3-((trans)-4-(3,3-difluoroazetidin-1-yl)cyclohexyl)-8-methylimidazo[1,5-a]pyrazin-1-yl)-2-methoxyphenyl(methyl)carbamate] | 100 to 1000 |
| COc1cc(-c2nc(C3CCN(C)CC3)n3ccnc(C)c23)ccc1NC(=O)c1cc2c(F)cccc2n1C [Example 45, 4-fluoro-N-(2-methoxy-4-(8-methyl-3-(1-methylpiperidin-4-yl)imidazo[1,5-a]pyrazin-1-yl)phenyl)-1-methyl-1H-indole-2-carboxamide] | 10 to 100 |
| COc1cc(-c2nc(C3CCOCC3)n3ccnc(C)c23)c(F)cc1NC(=O)c1cc2c(OC)cccc2n1C [Example 46, N-(5-fluoro-2-methoxy-4-(8-methyl-3-(tetrahydro-2H-pyran-4-yl)imidazo[1,5-a]pyrazin-1-yl)phenyl)-4-methoxy-1-methyl-1H-indole-2-carboxamide] | ≤ 10 |
| COc1cc(-c2nc(C3CCOCC3)n3ccnc(C)c23)c(F)cc1NC(=O)OC(C)CCCO (stereo not shown) [Example 47, 5-Hydroxypentan-2-yl 5-fluoro-2-methoxy-4-(8-methyl-3-(tetrahydro-2h-pyran-4-yl)imidazo[1,5-a]pyrazin-1-yl)phenylcarbamate] | 100 to 1000 |
| CC[C@H](C)OC(=O)Nc1ccc(-c2nc([C@H]3CC[C@H](N4CCN(C)CC4)CC3)n3ccnc(C)c23)cc1OC [Example 48, (S)-sec-Butyl 2-methoxy-4-(8-methyl-3-((trans)-4-(4-methylpiperazin-1-yl)cyclohexyl)imidazo[1,5-a]pyrazin-1-yl)phenylcarbamate] | ≤ 10 |
| COc1cc(-c2nc(C3CCN(C4CCN(C(C)=O)CC4)CC3)n3ccnc(C)c23)ccc1NC(=O)c1cc2c(OC)cccc2n1C [Example 49, N-(4-(3-(1′-acetyl-1,4′-bipiperidin-4-yl)-8-methylimidazo[1,5-a]pyrazin-1-yl)-2-methoxyphenyl)-4-methoxy-1-methyl-1H-indole-2-carboxamide] | ≤ 10 |
| CCC[C@H](C)OC(=O)Nc1ccc(-c2nc([C@H]3CCN(C(=O)COC)C3)n3ccnc(C)c23)cc1OC [Example 50, (S)-pentan-2-yl 2-methoxy-4-(3-((S)-1-(2-methoxyacetyl)pyrrolidin-3-yl)-8-methylimidazo[1,5-a]pyrazin-1-yl)phenylcarbamate] | ≤ 10 |
| COc1cc(-c2nc([C@H]3CC[C@H](OC(=O)NC4CCCC4)CC3)n3ccnc(C)c23)ccc1NC(=O)c1cc2c(OC)cccc2n1C [Example 51, (trans)-4-(1-(3-Methoxy-4-(4-methoxy-1-methyl-1H-indole-2-carboxamido)phenyl)-8-methylimidazo[1,5-a]pyrazin-3-yl)cyclohexyl cyclopentylcarbamate] | 10 to 100 |
| COc1cc(-c2nc([C@@H]3CCN(C(=O)CO)C3)n3ccnc(C)c23)ccc1NC(=O)c1cc2c(OC)cccc2n1C [Example 53, (R)—N-(4-(3-(1-(2-hydroxyacetyl)pyrrolidin-3-yl)-8-methylimidazo[1,5-a]pyrazin-1-yl)-2-methoxyphenyl)-4-methoxy-1-methyl-1H-indole-2-carboxamide] | ≤ 10 |
| COc1cc(-c2nc([C@H]3CC[C@H](N4CCN(C)CC4)CC3)n3ccnc(C)c23)ccc1NC(=O)c1cc(Cl)cn1C [Example 55, 4-Chloro-N-(2-methoxy-4-(8-methyl-3-((trans)-4-(4-methylpiperazin-1-yl)cyclohexyl)imidazo[1,5-a]pyrazin-1-yl)phenyl)-1-methyl-1H-pyrrole-2-carboxamide] | ≤ 10 |

Results, then the molecule that gave them:

| IC50 [nM] | Compound |
| --- | --- |
| 10 to 100 | COc1cc(-c2nc([C@@H]3CCN(C4CCOCC4)C3)n3ccnc(C)c23)ccc1NC(=O)c1cc2c(OC)cccc2n1C [Example 35, (R)-4-methoxy-N-(2-methoxy-4-(8-methyl-3-(1-(tetrahydro-2H-pyran-4-yl)pyrrolidin-3-yl)imidazo[1,5-a]pyrazin-1-yl)phenyl)-1-methyl-1H-indole-2-carboxamide] |
| 10 to 100 | COc1cc(-c2nc(N3CCn4c(nnc4C(F)(F)F)C3)n3ccnc(C)c23)ccc1NC(=O)c1cc2c(OC)cccc2n1C [Example 37, 4-Methoxy-N-(2-methoxy-4-(8-methyl-3-(3-(trifluoromethyl)-5,6-dihydro-[1,2,4]triazolo[4,3-a]pyrazin-7(8H)-yl)imidazo[1,5-a]pyrazin-1-yl)phenyl)-1-methyl-1H-indole-2-carboxamide] |
| ≤ 10 | COc1cc(-c2nc(C3CCN(C)C(=O)C3)n3ccnc(C)c23)ccc1NC(=O)c1cc2c(OC)cccc2n1C (stereo not shown) [Example 38, 4-Methoxy-N-(2-methoxy-4-(8-methyl-3-(1-methyl-2-oxopiperidin-4-yl)imidazo[1,5-a]pyrazin-1-yl)phenyl)-1-methyl-1H-indole-2-carboxamide] |
| 10 to 100 | COc1ccc2[nH]c(C(=O)Nc3ccc(-c4nc(C5CCOCC5)n5ccnc(C)c45)cc3OC)cc2n1 [Example 42, 5-methoxy-N-(2-methoxy-4-(8-methyl-3-(tetrahydro-2H-pyran-4-yl)imidazo[1,5-a]pyrazin-1-yl)phenyl)-1H-pyrrolo[3,2-b]pyridine-2-carboxamide] |
| ≤ 10 | COc1cc(-c2nc(C3CCN(C)CC3)n3ccnc(C)c23)ccc1NC(=O)c1cc2ccccc2n1C [Example 43, N-(2-methoxy-4-(8-methyl-3-(1-methylpiperidin-4-yl)imidazo[1,5-a]pyrazin-1-yl)phenyl)-1-methyl-1H-indole-2-carboxamide] |
| 10 to 100 | COc1cc(-c2nc(C3CCOCC3)n3ccnc(C)c23)ccc1NC(=O)O[C@@H](C)CCO [Example 44, (S)-4-hydroxybutan-2-yl 2-methoxy-4-(8-methyl-3-(tetrahydro-2H-pyran-4-yl)imidazo[1,5-a]pyrazin-1-yl)phenylcarbamate] |
| 10 to 100 | COc1cc(-c2nc([C@@H]3CCN(CC(=O)N(C)C)C3)n3ccnc(C)c23)ccc1NC(=O)c1cc2c(OC)cccc2n1C [Example 52, (R)—N-(4-(3-(1-(2-(dimethylamino)-2-oxoethyl)pyrrolidin-3-yl)-8-methylimidazo[1,5-a]pyrazin-1-yl)-2-methoxyphenyl)-4-methoxy-1-methyl-1H-indole-2-carboxamide] |
| ≤ 10 | COc1cc(-c2nc([C@H]3CC[C@H](N4CCNCC4)CC3)n3ccnc(C)c23)ccc1NC(=O)c1cc2c(OC)cccc2n1C [Example 54, 4-Methoxy-N-(2-methoxy-4-(8-methyl-3-((trans)-4-(piperazin-1-yl)cyclohexyl)imidazo[1,5-a]pyrazin-1-yl)phenyl)-1-methyl-1H-indole-2-carboxamide] |
